Test results: patent US20230248740A1, “Pharmaceutical Composition Comprising Compound Capable of Penetrating Blood-Brain Barrier as Effective Ingredient for Preventing or Treating Brain Cancer” (DAEGU-GYEONGBUK MEDICAL INNOVATION FOUNDATION, priority 2017, published 2023)

Columns and labels:
LRRK2 protein [1] = target: T1, LRRK2 protein (Homo sapiens, UniProt Q5S007); experiment: LRRK2 protein phosphorylation inhibitory activity, Western blotting, NCC01 cells; type: cell-based, human (brain-tumor-patient-derived cell line); settings: after 1 day
T1 construct: endogenous in cells; host or cells: NCC01 (brain-tumor-patient-derived cell line)
Method: In order to evaluate drug efficacy in vitro, a Western blotting experiment was performed using brain-tumor-patient-derived cell line NCC01 cells.
(§1) Here, the group not treated with the compound of Example was used as a vehicle.
as §1
Here, the group not treated with the compound of Example was used as a vehicle. […]
More specifically, 7.5x10^5 to 1.0x10^6 cells were treated with the compound of Comparative Example at a concentration of 0.1 or 1.0 µM, and after 1 day, samples were collected and evaluated for LRRK2 protein phosphorylation inhibitory activity through Western blotting. Here, the group not treated with the compound of Example was used as a vehicle.

LRRK2 protein [2] = target: T1, LRRK2 protein; experiment: LRRK2 protein phosphorylation inhibitory activity, Western blotting, 448T cells; type: cell-based, human (brain-tumor-patient-derived cell line); settings: after 1 day
Method: An experiment was conducted in order to evaluate the in-vitro drug efficacy of the compound of Comparative Example, known as an LRRK2 protein inhibitor.

528NS cells = experiment: Sphere size under hypoxic conditions with shRNA against the LRRK2 gene, 528NS cells; type: cell-based; settings: 528NS cells exposed to hypoxic conditions
Method: (§2) Specifically, NCC01 and 528NS cells were exposed to hypoxic conditions and treated with two kinds of shRNA against the LRRK2 gene, after which changes in the size of spheres were measured. Here, a control was shRNA (shNT) against luciferase.

NCC01 cells [3] = experiment: Sphere size under hypoxic conditions with shRNA against the LRRK2 gene, NCC01 cells; type: cell-based, human (brain-tumor-patient-derived cell line); settings: NCC01 cells exposed to hypoxic conditions
Method: as §2

NCC01 cells [4] = experiment: Apoptosis induction activity, FACS, NCC01 cells; type: cell-based, human (brain-tumor-patient-derived cell line); settings: 100 nM, after 1 day
Method: In order to evaluate whether apoptosis of brain tumor cells is induced by inhibiting LRRK2 protein phosphorylation, an experiment was conducted using FACS (fluorescence-activated cell sorting).
More specifically, 7.5x10^5 to 1.0x10^6 NCC01 cells were treated with the compound of each of Examples 11, 12 and 21 at a concentration of 100 nM, and after 1 day, samples were collected and subjected to FACS, thus assaying the apoptosis induction activity. The group not treated with the compound of Example was used as a control.

448T cells = experiment: Growth inhibitory activity on brain tumor cells in animal model, 448T cells injected into the brain; type: in vivo, Balb/c-nude mouse; settings: orally, 60 mg/kg
Method: (§3) More specifically, 1.0x10^4 NCC01 cells, a brain-tumor-patient-derived cell line, were injected into the brain of a Balb/c-nude mouse model, and after 3 days, the compound of Example 12 was orally administered at a dose of 10 mg/kg or 60 mg/kg. After administration of the compound, the survival rate of the mice based on the survival period was determined, and the size of the tumors generated in the mice was measured using MRI. Here, the group not treated with the compound of Example was used as a vehicle.
Specifically, the experiment was conducted in the same manner under the same conditions as in Experimental Example 14, with the exception that 448T cells were used in lieu of NCC01 cells, and the compound of each of Examples 12, 20 and 21 was orally administered at a dose of 60 mg/kg.

NESTIN protein = experiment: Expression of NESTIN protein (cancer stem cell marker), Western blotting, NCC01 cells; type: cell-based, human (brain-tumor-patient-derived cell line); settings: 50 to 2,000 nM, after 1 day
Method: More specifically, 1.0x10^6 NCC01 cells were treated with the compound of Example 12 at concentrations of 50, 100, 500, 1,000 and 2,000 nM. After 1 day, samples were collected and the expression of NESTIN protein, which is a cancer stem cell marker involved in the intracellular signaling pathway, was measured through Western blotting. Here, the group not treated with the compound of Example was used as a vehicle.

LRRK2 protein [5] = target: T1, LRRK2 protein; experiment: LRRK2 protein phosphorylation inhibitory activity, Western blotting, NCC01 cells; type: cell-based, human (brain-tumor-patient-derived cell line); settings: for LRRK2 protein phosphorylation: after 1 day
U87MG cells = experiment: Therapeutic effect on brain tumor upon co-administration with Avastin, U87MG orthotopic mouse model; type: in vivo, Balb/c-nude mice; settings: Example 12 orally 30 mg/kg in combination with Avastin intraperitoneally 10 mg/kg, vs Avastin
Method: More specifically, orthotopic mouse models were manufactured using 5-week-old Balb/c-nude mice. U87MG cells (ATCC, USA), a brain tumor cell line, were injected 3.5 mm deep at a position 2.2 mm to the left of and 0.5 mm behind the bregma using a stereotaxic device. 3 days after injection of the cells, mice were divided into three groups of 5 mice per group (a control (vehicle), a group administered with Avastin, and a group administered with the compound of Example 12 and Avastin), and the drug was administered thereto. The compound of Example 12 was orally administered at a dose of 30 mg/kg and Avastin was injected intraperitoneally at a dose of 10 mg/kg.

NCC01 cells [6] = experiment: Growth inhibitory activity on brain tumor cells in animal model, NCC01 cells injected into the brain; type: in vivo, Balb/c-nude mouse; settings: orally
Method: as §3

NCC01 cells [7] = experiment: Mitochondrial function, TMRE staining of activated mitochondria, NCC01 cells; type: cell-based, human (brain-tumor-patient-derived cell line); settings: after 1 day
Method: Specifically, NCC01 cells were treated with the compound of Example 12 at 1 µM, and after 1 day, TMRE (tetramethylrhodamine ethylester) dye for staining activated mitochondria was added thereto to evaluate changes in mitochondrial function. Here, the group not treated with the compound of Example was used as a control.
Specifically, brain tumor stem cell line NCC01 cells were treated with the compound of Example 12 at a concentration of 0.1 or 1 µM, and after 1 day, the mitochondria were stained as described in Experimental Example 9 to assay changes in the function thereof. Here, the group not treated with the compound of Example was used as a vehicle.

[8] = tested on: TRAP1 (TNF receptor associated protein 1); experiment: TRAP1 expression, Western blotting, brain tumor stem cell line NCC01; type: cell-based, human (brain-tumor-patient-derived cell line); settings: NCC01 cells, 100 or 1,000 nM, after 1 day
Method: Specifically, brain tumor stem cell line NCC01 cells were added with the compound of Example 12 at a concentration of 100 or 1,000 nM, and after 1 day, changes in the expression of TRAP1 were measured through Western blotting. Here, the group not treated with the compound of Example was used as a vehicle.

[9] = 100 or 1,000 nM, compared to the vehicle

T1 sequence (Q5S007 whole entry): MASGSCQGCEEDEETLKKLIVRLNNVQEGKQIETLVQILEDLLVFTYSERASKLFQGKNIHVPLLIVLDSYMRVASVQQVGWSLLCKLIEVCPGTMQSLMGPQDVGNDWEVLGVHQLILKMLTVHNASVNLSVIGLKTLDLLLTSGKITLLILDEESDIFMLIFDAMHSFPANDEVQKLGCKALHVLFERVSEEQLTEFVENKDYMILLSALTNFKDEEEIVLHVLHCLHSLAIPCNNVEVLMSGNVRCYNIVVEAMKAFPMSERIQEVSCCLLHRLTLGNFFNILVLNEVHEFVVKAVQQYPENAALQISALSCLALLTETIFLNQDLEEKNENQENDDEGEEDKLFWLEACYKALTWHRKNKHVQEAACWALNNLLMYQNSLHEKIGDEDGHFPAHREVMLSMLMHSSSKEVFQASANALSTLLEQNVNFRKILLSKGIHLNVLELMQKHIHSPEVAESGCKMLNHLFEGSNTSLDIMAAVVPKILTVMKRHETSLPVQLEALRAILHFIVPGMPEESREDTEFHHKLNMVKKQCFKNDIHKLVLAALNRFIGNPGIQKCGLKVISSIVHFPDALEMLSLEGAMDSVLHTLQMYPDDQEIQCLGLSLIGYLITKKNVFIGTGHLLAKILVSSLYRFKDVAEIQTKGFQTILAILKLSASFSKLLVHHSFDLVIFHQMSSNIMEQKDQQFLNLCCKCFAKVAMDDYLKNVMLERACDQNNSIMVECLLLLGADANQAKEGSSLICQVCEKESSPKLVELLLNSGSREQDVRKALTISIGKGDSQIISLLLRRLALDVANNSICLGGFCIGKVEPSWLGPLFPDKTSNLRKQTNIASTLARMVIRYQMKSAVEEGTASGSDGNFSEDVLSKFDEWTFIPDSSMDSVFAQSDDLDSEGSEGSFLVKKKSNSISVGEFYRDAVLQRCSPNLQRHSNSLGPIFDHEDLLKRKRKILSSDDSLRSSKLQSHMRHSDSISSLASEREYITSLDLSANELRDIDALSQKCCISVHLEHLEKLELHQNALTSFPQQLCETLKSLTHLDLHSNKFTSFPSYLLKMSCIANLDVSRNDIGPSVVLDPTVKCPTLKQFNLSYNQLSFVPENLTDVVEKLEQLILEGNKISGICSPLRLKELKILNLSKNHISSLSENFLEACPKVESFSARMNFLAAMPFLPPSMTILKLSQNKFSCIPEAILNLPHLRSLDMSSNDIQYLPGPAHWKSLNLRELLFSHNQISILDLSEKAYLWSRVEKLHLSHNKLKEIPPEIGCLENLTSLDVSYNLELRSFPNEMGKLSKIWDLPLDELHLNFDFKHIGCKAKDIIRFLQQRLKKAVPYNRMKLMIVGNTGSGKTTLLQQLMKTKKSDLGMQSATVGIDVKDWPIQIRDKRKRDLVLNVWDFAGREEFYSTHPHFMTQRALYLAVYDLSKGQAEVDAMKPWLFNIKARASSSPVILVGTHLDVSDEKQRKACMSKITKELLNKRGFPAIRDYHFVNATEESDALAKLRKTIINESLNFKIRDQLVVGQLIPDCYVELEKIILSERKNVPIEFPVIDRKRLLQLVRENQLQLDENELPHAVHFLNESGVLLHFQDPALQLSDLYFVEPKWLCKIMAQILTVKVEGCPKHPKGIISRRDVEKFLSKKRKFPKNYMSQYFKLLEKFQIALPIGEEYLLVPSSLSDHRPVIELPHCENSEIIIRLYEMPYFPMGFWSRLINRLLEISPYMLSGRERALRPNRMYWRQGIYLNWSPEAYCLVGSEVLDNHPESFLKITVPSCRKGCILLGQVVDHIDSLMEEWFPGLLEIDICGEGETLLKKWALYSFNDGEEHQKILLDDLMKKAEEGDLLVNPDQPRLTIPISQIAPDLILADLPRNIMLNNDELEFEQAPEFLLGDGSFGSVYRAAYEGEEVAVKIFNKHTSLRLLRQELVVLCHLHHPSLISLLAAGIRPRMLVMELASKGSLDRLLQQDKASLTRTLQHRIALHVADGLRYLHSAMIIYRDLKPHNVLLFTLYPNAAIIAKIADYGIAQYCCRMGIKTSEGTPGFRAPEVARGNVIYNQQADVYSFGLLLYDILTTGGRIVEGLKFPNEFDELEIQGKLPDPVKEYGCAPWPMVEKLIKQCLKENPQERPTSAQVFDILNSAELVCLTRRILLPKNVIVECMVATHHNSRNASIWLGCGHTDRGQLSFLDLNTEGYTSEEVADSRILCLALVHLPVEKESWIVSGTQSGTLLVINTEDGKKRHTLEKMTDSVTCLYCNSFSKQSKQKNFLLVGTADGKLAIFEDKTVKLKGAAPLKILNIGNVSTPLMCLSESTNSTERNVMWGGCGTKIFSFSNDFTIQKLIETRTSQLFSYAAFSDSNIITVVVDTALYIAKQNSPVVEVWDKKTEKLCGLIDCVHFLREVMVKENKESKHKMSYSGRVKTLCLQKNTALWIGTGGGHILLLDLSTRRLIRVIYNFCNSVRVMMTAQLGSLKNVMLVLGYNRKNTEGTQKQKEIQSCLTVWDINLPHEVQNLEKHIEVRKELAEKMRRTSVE

`COc1cc(C(=O)N2CCC(N3CCN(C)CC3)CC2)ccc1Nc1ncc2c(n1)N(C)c1ccccc1C(=O)N2C` [Example 10, 2-[(2-Methoxy-4-[[4-(4-Methylpiperazin-1-yl)Piperidin-1-yl]Carbonyl]Phenyl)Amino]-5,11-Dimethyl-5,11-Dihydro-6H-Pyrimido[4,5-b][1,4]Benzodiazepin-6-One] was tested, and the LRRK2 protein phosphorylation (LRRK2 protein [1]; [9]) was “significantly inhibited”, the “phosphorylated LRRK2 protein” value (LRRK2 protein [1]; concentration of 100 nM) was “detected” and the LRRK2 protein phosphorylation (LRRK2 protein [2]; [9]) was “significantly inhibited”.

With “LRRK2 shRNA-2: shRNA against the LRRK2 gene, SEQ ID NO: 34 (CCGGCCCAAATTGGTGGAACTCTTACTCGAGTAAGAGTTCCACCAATTTGGGTTTTT)” the sphere size (528NS cells) was “suppressed” and the sphere size (NCC01 cells [3]) was “suppressed”.

With “LRRK2 shRNA-1: shRNA against the LRRK2 gene, SEQ ID NO: 33 (CCGGCCACAAATTCAACGGAAAGAACTCGAGTTCTTTCCGTTGAATTTGTGGTTTTT)” the sphere size (528NS cells) was “suppressed” and the sphere size (NCC01 cells [3]) was “suppressed”.

For `CNc1nc(Nc2cn(C(C)(C)C#N)nc2C)ncc1C(F)(F)F` [Comparative Example, 2-Methyl-2-[3-Methyl-4-[[4-(Methylamino)-5-(Trifluoromethyl)Pyrimidin-2-yl]Amino]Pyrazol-1-yl]Propanenitrile, reference compound], the LRRK2 protein phosphorylation (LRRK2 protein [1]; 0.1 or 1.0 µM) was “did not inhibit” and the LRRK2 protein phosphorylation (LRRK2 protein [2]; 0.1 or 1.0 µM, Examples stated by contrast ('unlike' = inhibited)) was “did not inhibit”.

With `CCNc1nc(Nc2cc(F)c(C(=O)N3CCOCC3)cc2OC)ncc1C(F)(F)F` [Example 11, (4-(4-(Ethylamino)-5-(Trifluoromethyl)Pyrimidin-2-Ylamino)-2-Fluoro-5-Methoxyphenyl) (Morpholino)Methanone] the LRRK2 protein phosphorylation (LRRK2 protein [1]; [9]) was “significantly inhibited”, the LRRK2 protein phosphorylation (LRRK2 protein [2]; [9]) was “significantly inhibited” and the “apoptosis of NCC01 cells” value (NCC01 cells [4]) was “induced”.

With `Cn1cc(-c2c[nH]c3ncnc(N4CCOCC4)c23)cc1C#N` [Example 22, 1-Methyl-4-(4-Morpholino-7H-Pyrrolo[2,3-d]Pyrimidin-5-yl)-1H-Pyrrole-2-Carbonitrile] the LRRK2 protein phosphorylation (LRRK2 protein [1]; [9]) was “significantly inhibited”.

In the case of `C[C@@H]1CN(c2cc(-c3n[nH]c4ccc(OC5(C)CC5)cc34)ncn2)C[C@H](C)O1` [Example 20, (2S,6R)-2,6-Dimethyl-4-(6-(5-(1-Methylcyclopropoxy)-1H-Indazol-3-yl)Pyrimidin-4-yl)Morpholine], the “tumor at the position to which the 448T cells were injected” value (448T cells) is reported as “no tumor was observed”.

`CNc1nc(Nc2ccc(C(=O)N3CCOCC3)cc2OC)ncc1C(F)(F)F` [Example 12, (3-Methoxy-4-(4-(Methylamino)-5-(Trifluoromethyl)Pyrimidin-2-Ylamino)Phenyl)(Morpholino)Methanone] was tested, and the “expression of NESTIN protein” value (NESTIN protein) was “reducing”, the LRRK2 protein phosphorylation (LRRK2 protein [1]; [9]) was “significantly inhibited” and the “extent of LRRK2 protein phosphorylation over time” value (LRRK2 protein [5]; NCC01 cells, 100 nM, starting 1 day after treatment, samples after 1, 4 and 8 days, reduction continued over time) was “drastically reduced”. For the same molecule, the LRRK2 protein phosphorylation (LRRK2 protein [5]; NCC01 cells, 50, 100, 500, 1,000 and 2,000 nM, concentration-dependent) was “inhibited”, the LRRK2 protein phosphorylation (LRRK2 protein [5]; NCC01 cells, concentrations of 50 and 100 nM) was “mostly inhibited” and the LRRK2 protein phosphorylation (LRRK2 protein [2]; [9]) was “significantly inhibited”. The LRRK2 protein phosphorylation (LRRK2 protein [2]; concentration of 50 nM) was “inhibited most”, the “therapeutic effect of Avastin on brain tumors (survival)” value (U87MG cells) was “further significantly increased” and the “apoptosis of NCC01 cells” value (NCC01 cells [4]) was “induced”. The “apoptosis rate relative to the compounds of Examples 11 and 21” value (NCC01 cells [4]) was “about 3 times”, the “tumor at the position to which the NCC01 cells were injected (MRI)” value (NCC01 cells [6]; 10 mg/kg or 60 mg/kg) was “no tumor was observed” and the “average survival period of the mice” value (NCC01 cells [6]; 10 mg/kg, vehicle 54 days) was 71 days. For the same molecule, the “survival of all the mice” value (NCC01 cells [6]; 60 mg/kg, vehicle average 54 days) was no less than 100 days, the “tumor at the position to which the 448T cells were injected” value (448T cells) was “no tumor was observed” and the “fragmentation of nuclei in the cells” value (NCC01 cells [7]; 1 µM) was “occurred”. For the same molecule, the “degree of color development of the TMRE dye” value (NCC01 cells [7]; 1 µM, vs control) was “decreased”, the “activity of the mitochondria present in the brain tumor stem cells” value (NCC01 cells [7]; 0.1 or 1 µM, compared to the control) was “inhibited” and the “expression of TRAP1” value [8] was “inhibited”.

With `N#Cc1cccc(-c2c[nH]c3nccc(N4CCOCC4)c23)c1` [Example 21, 3-(4-Morpholino-1H-Pyrrolo[2,3-b]Pyridin-3-yl)Benzonitrile] the LRRK2 protein phosphorylation (LRRK2 protein [1]; [9]) was “significantly inhibited”, the LRRK2 protein phosphorylation (LRRK2 protein [2]; [9]) was “significantly inhibited” and the “apoptosis of NCC01 cells” value (NCC01 cells [4]) was “induced”. The “tumor at the position to which the 448T cells were injected” value (448T cells) was “no tumor was observed”.
